We go through five compounds from ChEMBL document CHEMBL1139767, “Dragon method for finding novel tyrosinase inhibitors: Biosilico identification and experimental in vitro assays” (Eur J Med Chem, 2007).

The IC50 is the midpoint of a concentration-inhibition curve.

The target of this experiment is T1, Tyrosinase (Agaricus bisporus, UniProt O42713).
T1 sequence (O42713 whole entry): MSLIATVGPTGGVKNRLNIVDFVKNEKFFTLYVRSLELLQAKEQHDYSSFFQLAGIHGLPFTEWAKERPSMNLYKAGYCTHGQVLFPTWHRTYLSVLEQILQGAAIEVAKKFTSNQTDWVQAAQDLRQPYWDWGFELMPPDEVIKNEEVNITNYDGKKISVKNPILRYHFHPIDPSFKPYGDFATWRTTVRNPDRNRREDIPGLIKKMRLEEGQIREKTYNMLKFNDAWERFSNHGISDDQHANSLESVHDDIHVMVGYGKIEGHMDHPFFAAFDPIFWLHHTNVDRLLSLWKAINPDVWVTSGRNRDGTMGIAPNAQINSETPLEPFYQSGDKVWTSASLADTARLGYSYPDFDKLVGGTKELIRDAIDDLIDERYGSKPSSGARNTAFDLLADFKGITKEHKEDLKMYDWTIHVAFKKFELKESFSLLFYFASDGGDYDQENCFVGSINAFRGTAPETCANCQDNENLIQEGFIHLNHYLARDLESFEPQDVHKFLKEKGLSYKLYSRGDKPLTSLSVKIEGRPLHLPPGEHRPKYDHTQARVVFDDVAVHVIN
Description: Inhibition of mashroom tyrosinase
Compound `C1CCN(C2CCNCC2)CC1` [[1,4']Bipiperidinyl] gave an IC50 of 111 µM.
In turn, `O=[N+]([O-])c1ccc(S(=O)(=O)N2CCC(N3CCCCC3)CC2)cc1` gave an IC50 of 111 µM.
With `c1ccc(OCCCN2CCC(N3CCCCC3)CC2)cc1`, the IC50 was 19.5 µM.
The result for `CC(=O)N1CCC(N2CCCCC2)CC1` reads 29.9 µM; that for `Cc1ccc(CN2CCC(N3CCCCC3)CC2)cc1`, 1.72 µM.
